Measurements from patent US6375943B1, “Attractant for the mediterranean fruit fly, the method of preparation and method of use” (The United States of America as represented by the …, priority 2000, dated 2002).

Assays:
[1] = system: Mediterranean fruit fly, Ceratitis capitata (Wiedemann); assay: Dose-response field test, Jackson traps, released sterile flies; assay type: in vivo; settings: for Male capture compared with other treatments: 1 mg, 0.1 mg and 0.01 mg dosages; for Mean male fly capture ± s.e.: 48 hours, released sterile flies
Experimental: Field attraction of Mediterranean fruit fly, Ceratitis capitata (Wiedemann), to stereoselectively synthesized enantiomers of the ceralure B1 isomer: The attractancy of the two newly synthesized ceralure B1 enantiomers was evaluated against laboratory and wild populations of medfly and the response to these compounds was compared to commercially available trimedlure and ceralure. Field tests using released sterile flies on the island of Hawaii or field tests against wild populations of medfly in commercial coffee plantations on the island of Kauai were carried out to compare the attractancy, dose response and initial persistence of the new molecules and a racemic (50:50) mixture of the two.
(§1) Insects: Sterilized Mediterranean fruit fly pupae were obtained from the USDA-ARS-USPBARC rearing facility in Honolulu, Hi. The flies were reared on an artificial diet (Tanaka, N., et al., J. Econ. Entomol., 62: 967-968 (1969)) under standard mass-rearing conditions and sterilized as pupae at a dose of 150 GY and two days before emergence. Flies were shipped by air to Hilo where 150 ml of pupae (both sexes) was placed in 15-gallon Rubbermaid action packers modified by screened panels on the bottoms and sides of the units. The emerged flies were given water, sugar and hydrolyzed yeast protein. Flies were 2-9 days old when tested. Wild populations of medflies were present in coffee orchards on the island of Kauai.
(§2) Bioassays: All tests were conducted using tent-shaped Jackson traps with open ends, a removable sticky insert and a ½ inch cotton wick containing the test chemical (Harris, E. J., et al., J. Econ. Entomol., 64: 62-65 (1971)). All tests were conducted using a randomized complete block design having five traps of each treatment in the block. The tests were replicated at least 5 times.
Dose-response tests: 10 mg, 1 mg, 0.1 mg and 0.01 mg doses of each compound (in 100 μl acetone) were tested on ½ inch cotton wicks in Jackson traps. Acetone was used in the control. The treatments were ceralure B1 (1S,2S,5S), ceralure B1 (Racemic), ceralure B1 (1R,2R,5R), trimedlure, ceralure and a blank control. Traps were placed in a macadamia nut orchard on the island of Hawaii near the town of Hilo. Traps were separated by every other tree in every row (approximately 15 meters between traps). Flies (approximately 6,000) were then released by slowly walking between rows while allowing the flies to escape from the opened action packer. Traps were left out for 48 hours after which the traps were collected and brought back to the lab for analysis. Both males and females were counted on the sticky inserts.
(§3) Data analysis: Both male and female medfly were counted on the sticky inserts. […] Data was subjected to analysis of variance (Proc GLM) and the Turkey's test for separation of means values. Significant differences in response were determined at the P=0.05 level. Data were not transformed prior to analysis. Statistical analysis was performed on SAS ver 6.12 (SAS Institute, Cary, N.C.) using a PC. Values presented on the tables are mean values SEM.

[2] = system: Mediterranean fruit fly, Ceratitis capitata (Wiedemann); assay: Longevity field test over three weeks, Jackson traps, released sterile flies; assay type: in vivo; settings: for Male capture compared with other treatments: 10 mg dose
Experimental: as §1, §2
Longevity tests: Preliminary tests to determine the effectiveness of the different chemical compounds over time were also carried out using sterile flies released in a macadamia nut orchard. In these tests all compounds were applied to the cotton wick at a 10 mg dose. 100 μl of each compound was placed on a ½ inch wick inside a Jackson trap. Traps were serviced weekly for three weeks. Inserts were changed each week and new flies were released but the same compounds were left in the field to age.
as §3

Mediterranean fruit fly = settings: field studies from the literature; cited from earlier work
[3] = system: wild Mediterranean fruit flies; assay: Wild fly response to ceralure B1 enantiomers, first experiment, Kauai coffee; settings: for Male capture compared with other treatments: 10 mg dosage; for Response of wild flies, Mean ± s.e.: 10 mg, traps serviced every two days
[4] = system: wild Mediterranean fruit flies; assay: Wild fly response, second experiment against standard 2 g trimedlure plug; settings: for Male capture compared with other treatments: after 48 hours, 10 mg versus 2 g trimedlure plug
[5] = known in the literature; cited from earlier work
[6] = dose .01 mg on cotton wick, N = 25
[7] = Week 1, 10 mg dose, released sterile flies
[8] = Week 2, 10 mg dose, same lure aged in field
[9] = Week 3, 10 mg dose, same lure aged in field

| Compound | Male capture compared with other treatments ([1]; 10 mg) | Mean male fly capture ± s.e. ([1]; dose 1 mg on cotton wick) | Mean male fly capture ± s.e. ([1]; dose 10 mg on cotton wick) | Mean male fly capture ± s.e. [1, 6] | Mean male fly capture ± s.e. ([1]; dose .1 mg on cotton wick) | Male fly capture, mean ± SEM [2, 7] | Male fly capture, mean ± SEM [2, 8] | Male fly capture, mean ± SEM [2, 9] | Male capture compared with other treatments ([2]; after one week) | Relative attractiveness toward the Mediterranean fruit fly (Mediterranean fruit fly) | Male capture compared with other treatments [3] | Response of wild flies, Mean ± s.e. [3] | also measured |
| --- | --- | --- | --- | --- | --- | --- | --- | --- | --- | --- | --- | --- | --- |
| CCOC(=O)[C@H]1C[C@@H](I)CC[C@@H]1C (racemic) [B1 Racemic, Ethyl(1SR,2SR,5SR)-5-iodo-2-methylcyclohexane-1-carboxylate] | captured significantly more male medflies than B1 (1S,2S,5S), commercial trimedlure, commercial ceralure and (acetone) control | 376.8 ± 36.7 a | 365.53 ± 33.7 b | 111 ± 12.2 a | 179.67 ± 33.5 b | 274.5 ± 21.8 a | 79.6 ± 33.3 a | 4.7 ± 3.7 a | captured significantly more males than B1 (1S,2S,5S), commercial trimedlure, commercial ceralure and control | most active | significantly higher captures than the B1 (1S,2S,5S) and commercial ceralure | 70.8 ± 10 b | Mean male fly capture ± s.e. ([1]; dose .01 mg on cotton wick, N = 25, listed as B1 racemic): 111; Male capture compared with other treatments ([2]; after two weeks): captured significantly more males than any other compound |
| C[C@H]1C[C@H](Cl)CC[C@@H]1C(=O)OC(C)(C)C (relative stereo) [(1S, 2S, 4R), 1,1-dimethylethyl-cis-4-chloro-trans-2-methylcyclohexane-1-carboxylate] | – | – | – | – | – | – | – | – | – | most attractive | – | – | – |
| CCOC(=O)[C@@H]1C[C@H](I)CC[C@H]1C [B1 1R,2R,5R, Ethyl (1R,2R,5R)-5-iodo-2-methylcyclohexane-1-carboxylate] | captured significantly more male medflies than B1 (1S,2S,5S), commercial trimedlure, commercial ceralure and (acetone) control | 473.07 ± 56.6 a | 487.27 ± 33 a | 117 ± 14.1 a | 303.07 ± 34.5 a | 338.9 ± 40.1 a | 69.3 ± 24.9 ab | .3 ± .3 a | captured significantly more males than B1 (1S,2S,5S), commercial trimedlure, commercial ceralure and control | – | captured significantly more males than the B1 racemic mixture | 104.2 ± 13.7 a | Dose compared to trimedlure to achieve the same trap capture ([1]; 0.01 mg versus trimedlure 10 mg, mean values from Table 1): 1000 times less; Male capture compared with B1 racemic mixture ([1]; 10 mg, 1 mg and 0.1 mg doses): captured significantly more males than the B1 racemic mixture; Mean male fly capture ± s.e. ([1]; dose .01 mg on cotton wick, N = 25, listed as 1R,2R,5R enantiomer): 117; Activity relative to trimedlure at similar doses ([1]; male capture compared to trimedlure, similar doses): 7-10 times; Male capture compared with other treatments [4]: captured the most male medflies but not significantly more than the B1 racemic mixture and commercial trimedlure; Male capture compared with other treatments ([4]; listed as B1 (1R,2R,5R) enantiomer): caught more wild flies after two days than the TML plug; Flies captured as share of the TML plug baited trap ([4]; after an additional 5 days, 10 mg versus 2 g TML plug): approximately 33% |
| CCOC(=O)[C@H]1C[C@@H](I)CC[C@@H]1C [B1 1S,2S,5S, Ethyl(1S, 2S, 5S)-5-iodo-2-methylcyclohexane-1-carboxylate] | – | 173 ± 42.2 b | 151.80 ± 25.3 c | 38.3 ± 6.5 b | 57.20 ± 8.3 c | 135.7 ± 33.4 b | 5.5 ± 4.5 b | 0 ± 0 a | – | – | – | 40.5 ± 8.3 c | – |
| CC1CC(Cl)CCC1C(=O)OC(C)(C)C (stereo not drawn) [TML-C, 1,1-dimethylethyl-cis-4-chloro-trans-2-methylcyclohexane-1-carboxylate] | – | – | – | – | – | – | – | – | – | most active | – | – | – |
| ethyl 4 (and 5)-iodo-2-methylcyclohexane-1-carboxylate [Com. Ceralure, reference compound] | – | 65.07 ± 9.5 bc | 170.47 ± 33.1 c | 23.4 ± 6.3 bc | 11.27 ± 4.1 c | 135 ± 16.8 b | 3.1 ± 2.2 b | .47 ± .27 a | – | more persistent and potent attractant than TML | – | 31.8 ± 4.4 c | Volatility compared with trimedlure [5]: less volatile than trimedlure |
